Laboratory results as given in patent US20090306046A1, “METHOD OF TREATMENT OF HORMONE DEPLETION INDUCED VASOMOTOR SYMPTOMS” (N.V. ORGANON, priority 2005, published 2009).

Experiments:
[1] = tested on: women with breast cancer; settings: results of 15 randomized controlled trials; cited from earlier work
[2] = tested on: postmenopausal women; test: Weaning from hormone therapy with mirtazapine as non-hormonal therapy for vasomotor symptoms; assay type: in vivo; settings: 15 mg by mouth at bedtime for 6 months from the day hormone therapy is discontinued; postmenopausal women 60-65 year old; in comparison to women on hormone therapy
Experimental: Mirtazapine is used as non-hormonal therapy for vasomotor symptoms. Treatment dose is 15 mg. The length of weaning is 6 months. In this example subjects for treatment have the following characteristics: Postmenopausal women of 60-65 year old who have been on hormone therapy for the treatment of vasomotor symptoms associated with menopause for at least 2 years. They have either a need or a desire to discontinue hormone therapy. They are informed of the risks of mirtazapine. They are informed that successful use of mirtazapine for the relief of vasomotor symptoms associated with menopause has been reported in the medical literature. This method should not be used for women who have a condition or take medications that preclude the use of mirtazapine. A person treated according to this example is instructed to take 15 mg mirtazapine by mouth on the day that they are to discontinue hormone therapy. Mirtazapine is prescribed to be taken at bedtime and after all their evening rituals are done so that they can lay down right after taking mirtazapine. They are instructed to continue taking 15 mg of mirtazapine at bedtime for 6 months after which mirtazapine administration is discontinued. […] Method to measure hot flash frequency: by self rating or according to the method described by Freedman et al J. Clin Endocrin & Metabolism, Vol 80, pp 2354-2358.

CC(=O)O[C@]1(C(C)=O)CC[C@H]2[C@@H]3C=C(C)C4=CC(=O)CC[C@]4(C)[C@H]3CC[C@@]21C [megestrol acetate]
measures of hot flashes [1]: significantly improved

Clc1cccc(Cl)c1N=C1NCCN1 [clonidine]
measures of hot flashes [1]: significantly improved

COc1ccc(C(CN(C)C)C2(O)CCCCC2)cc1 (stereo not shown) [venlafaxine]
measures of hot flashes [1]: significantly improved

CN1CCN2c3ncccc3Cc3ccccc3C2C1 (racemic) [Mirtazapine]
withdrawal vasomotor symptoms [2]: absent or strongly reduced
